Columns and labels:
Puccinia recondita = assay: Puccinia test (wheat)/protective; assay type: in vivo; details: protective, application rate 500 g/ha, evaluation 10 days after inoculation
Method: • Solvent: 25 parts by weight of N,N-dimethylacetamide • Emulsifier: 0.6 part by weight of alkylaryl polyglycol ether To produce a suitable preparation of active compound, 1 part by weight of active compound is mixed with the stated amounts of solvent and emulsifier, and the concentrate is diluted with water to the desired concentration. To test for protective activity, young plants are sprayed with the preparation of active compound at the stated application rate. After the spray coating has dried on, the plants are sprayed with a conidia suspension of Puccinia recondita. The plants remain in an incubation cabinet at 20° C. and 100% relative atmospheric humidity for 48 hours. The plants are then placed in a greenhouse at a temperature of about 20° C. and a relative atmospheric humidity of 80% to promote the development of rust pustules. Evaluation is carried out 10 days after the inoculation. 0% means an efficacy which corresponds to that of the control, whereas an efficacy of 100% means that no infection is observed.

Venturia inaequalis = assay: Venturia test (apple)/protective; assay type: in vivo; details: protective, application rate 100 g/ha, evaluation 10 days after inoculation
Method: (§1) • Solvents: 24.5 parts by weight of acetone • 24.5 parts by weight of dimethylacetamide • Emulsifier: 1 part by weight of alkylaryl polyglycol ether
(§2) To produce a suitable preparation of active compound, 1 part by weight of active compound is mixed with the stated amounts of solvents and emulsifier, and the concentrate is diluted with water to the desired concentration.
To test for protective activity, young plants are sprayed with the preparation of active compound at the stated application rate. After the spray coating has dried on, the plants are inoculated with an aqueous conidia suspension of the apple scab pathogen Venturia inaequalis and then remain in an incubation cabinet at about 20° C. and 100% relative atmospheric humidity for one day.
The plants are then placed in a greenhouse at about 21° C. and a relative atmospheric humidity of about 90%.
(§3) Evaluation is carried out 10 days after the inoculation. 0% means an efficacy which corresponds to that of the control, whereas an efficacy of 100% means that no infection is observed.

Podosphaera leucotricha = assay: Podosphaera test (apple)/protective; assay type: in vivo; details: protective, application rate 100 g/ha, evaluation 10 days after inoculation
Method: as §1, §2
To test for protective activity, young plants are sprayed with the preparation of active compound at the stated application rate. After the spray coating has dried on, the plants are inoculated with an aqueous spore suspension of the apple mildew pathogen Podosphaera leucotricha. The plants are then placed in a greenhouse at about 23° C. and a relative atmospheric humidity of about 70%.
as §3

Botrytis cinerea = assay: Botrytis test (bean)/protective; assay type: in vivo; details: protective, application rate 500 g/ha, evaluation 2 days after inoculation
Method: as §1
To produce a suitable preparation of active compound, 1 part by weight of active compound is mixed with the stated amounts of solvent and emulsifier, and the concentrate is diluted with water to the desired concentration.
To test for protective activity, young plants are sprayed with the preparation of active compound at the stated application rate. After the spray coating has dried on, 2 small pieces of agar colonized by Botrytis cinerea are placed onto each leaf. The inoculated plants are placed in a dark chamber at about 20° C. and 100% relative atmospheric humidity.
2 days after the inoculation, the size of the infected areas on the leaves is evaluated. 0% means an efficacy which corresponds to that of the control, whereas an efficacy of 100% means that no infection is observed.

[1] = log P determination by HPLC on reversed-phase column (EEC Directive 79/831 Annexe V.A8); assay type: physicochemical; details: reversed-phase HPLC column (C 18), pH 2.3, C 18, 43° C., preparation examples
Method: The log P values given in the preparation examples and tables above are determined in accordance with EEC Directive 79/831 Annexe V.A8 by HPLC (High Performance Liquid Chromatography) on a reversed-phase column (C 18). Temperature: 43° C.
The determination in the acidic range is carried out at pH 2.3 using the mobile phases 0.1% aqueous phosphoric acid and acetonitrile; linear gradient from 10% acetonitrile to 90% acetonitrile.
Calibration was carried out using unbranched alkan-2-ones (with 3 to 16 carbon atoms) with known log P values (determination of the log P values by the retention times using linear interpolation between two successive alkanones).

Sphaerotheca fuliginea = assay: Sphaerotheca test (cucumber)/protective; assay type: in vivo; details: protective, application rate 750 g/ha, evaluation 7 days after inoculation
Method: • Solvent: 49 parts by weight of N,N-dimethylformamide • Emulsifier: 1 part by weight of alkylaryl polyglycol ether To produce a suitable preparation of active compound, 1 part by weight of active compound is mixed with the stated amounts of solvent and emulsifier, and the concentrate is diluted with water to the desired concentration. To test for protective activity, young cucumber plants are sprayed with the preparation of active compound at the stated application rate. 1 day after the treatment, the plants are inoculated with a spore suspension of Sphaerotheca fuliginea. The plants are then placed in a greenhouse at 70% relative atmospheric humidity and a temperature of 23° C. Evaluation is carried out 7 days after the inoculation. 0% means an efficacy which corresponds to that of the control, whereas an efficacy of 100% means that no infection is observed.

SMILES: Cc1nn(C)c(F)c1C(=O)N(C)c1ccccc1C(C)CC(C)C (centres unmarked)
- Efficacy in % (Puccinia recondita): 100%

SMILES: Cc1nn(C)c(F)c1C(=O)N(C)c1ccccc1C(C)CC(C)(C)C (centres unmarked)
- Efficacy in % (Puccinia recondita): 100%

SMILES: COCN(C(=O)c1c(C(F)(F)F)nn(C)c1F)c1ccccc1C(C)CC(C)(C)C (centres unmarked) [drawing 21]
- Efficacy in % (Venturia inaequalis): 100%

SMILES: COCN(C(=O)c1c(C(F)(F)F)nn(C)c1F)c1ccccc1C(C)CC(C)(C)C (centres unmarked) [drawing 25]
- Efficacy in % (Puccinia recondita): 100%

SMILES: CCOC(=O)C(=O)N(C(=O)c1c(C)nn(C)c1F)c1ccccc1C(C)CC(C)(C)C (centres unmarked) [drawing 20]
- Efficacy in % (Podosphaera leucotricha): 97%

SMILES: COCN(C(=O)c1c(C(F)(F)F)nn(C)c1F)c1ccccc1C(C)CC(C)(C)C (centres unmarked) [drawing 23]
- Efficacy in % (Botrytis cinerea): 100%

SMILES: COCN(C(=O)c1c(C(F)(F)F)nn(C)c1F)c1ccccc1C(C)CC(C)(C)C (centres unmarked) [drawing 19]
- Efficacy in % (Podosphaera leucotricha): 98%

SMILES: CCOC(=O)C(=O)N(C(=O)c1c(C)nn(C)c1F)c1ccccc1C(C)CC(C)(C)C (centres unmarked) [Example 2, ethyl {[(5-fluoro-1,3-dimethyl-1H-pyrazol-4-yl)carbonyl][2-(1,3,3-trimethylbutyl)phenyl]amino}(oxo)acetate]
- chromatographic logP [1]: 4.4

SMILES: CCOC(=O)C(=O)N(C(=O)c1c(C)nn(C)c1F)c1ccccc1C(C)CC(C)(C)C (centres unmarked) [drawing 24]
- Efficacy in % (Botrytis cinerea): 97%

SMILES: CC(=O)N(C(=O)c1c(C(F)(F)F)nn(C)c1F)c1ccccc1C(C)CC(C)(C)C (centres unmarked) [Example 1, N-acetyl-5-fluoro-1-methyl-3-(trifluoromethyl)-N-[2-(1,3,3-trimethylbutyl)phenyl]-1H-pyrazole-4-carboxamide]
- chromatographic logP [1]: 4.63

SMILES: CC(=O)Nc1ccccc1C(C)CC(C)C (centres unmarked) [III-1, N-[2-(1,3-dimethylbutyl)phenyl]acetamide]
- chromatographic logP [1]: 2.65

SMILES: CC(CC(C)(C)C)c1ccccc1N(C)C(=O)c1c(C(F)(F)F)nn(C)c1F (centres unmarked)
- Efficacy in % (Sphaerotheca fuliginea): 100%

SMILES: CCOC(=O)C(=O)N(C(=O)c1c(C)nn(C)c1F)c1ccccc1C(C)CC(C)(C)C (centres unmarked) [drawing 22]
- Efficacy in % (Venturia inaequalis): 100%

SMILES: COCN(C(=O)c1c(C(F)(F)F)nn(C)c1F)c1ccccc1C(C)CC(C)(C)C (centres unmarked) [drawing 29]
- Efficacy in % (Sphaerotheca fuliginea): 100%
